Source: PubChem BioAssay (NCI)
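96-well plates; 48 h exposure; 5 concentrations. Endpoints by linear interpolation between flanking doses. Not reached: highest tested concentration assigned. GI50 marks 50% less growth. TGI denotes the concentration required for complete inhibition of growth.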

Tests used:
Experiment in all cases: NCI tumour cell line growth inhibition, 48 h
A549 NSCLC = tested on: A549 NSCLC
SK-MEL-28 melanoma = tested on: SK-MEL-28 melanoma
SK-MEL-5 melanoma = tested on: SK-MEL-5 melanoma
HOP-92 NSCLC = tested on: HOP-92 NSCLC
SF-539 CNS = tested on: SF-539 CNS
HCC-2998 colon = tested on: HCC-2998 colon
HCT-15 colon = tested on: HCT-15 colon
CAKI-1 renal = tested on: CAKI-1 renal
M14 melanoma = tested on: M14 melanoma
SK-OV-3 ovarian = tested on: SK-OV-3 ovarian

SMILES | TGI (A549 NSCLC) | TGI (SK-MEL-28 melanoma) | TGI (SK-MEL-5 melanoma) | TGI (HOP-92 NSCLC) | TGI (SF-539 CNS) | TGI (HCC-2998 colon) | TGI (HCT-15 colon) | TGI (CAKI-1 renal) | TGI (M14 melanoma) | TGI (SK-OV-3 ovarian) | GI50 (M14 melanoma) | GI50 (A549 NSCLC) | GI50 (SK-MEL-28 melanoma) | GI50 (SK-MEL-5 melanoma) | GI50 (HOP-92 NSCLC) | GI50 (SF-539 CNS) | GI50 (HCC-2998 colon) | GI50 (HCT-15 colon) | GI50 (CAKI-1 renal) | GI50 (SK-OV-3 ovarian)
Cc1nc2ccc(Cl)cc2c2c1CCN2c1ccccc1 | 46.6 µM | 28.5 µM | 20.7 µM | 24.1 µM | 28.8 µM | 24.8 µM | 95.3 µM | 28.1 µM |  |  |  |  |  |  |  |  |  |  |  | 
O=C1c2ccccc2C(=O)N1c1nc(-c2ccc(Cl)cc2)cc(N2N=C(c3ccc(Br)cc3)CC2c2ccccc2)n1 (centres undefined) | 17.4 µM | 21.4 µM | 5.02 µM | 82.3 µM | 4.41 µM | 0.966 µM | 7.14 µM |  | > 36.1 µM | > 46.1 µM |  |  |  |  |  |  |  |  |  | 
CCOC(=O)C(=O)C(=O)NN(C)C1=NCCN1 | > 100 µM | > 100 µM | > 100 µM | > 100 µM | > 100 µM | > 100 µM | > 100 µM |  | > 100 µM | > 100 µM |  |  |  |  |  |  |  |  |  | 
COC(=O)C1=C(O)C(C(=O)OC)[C@]2(O)[C@H](C(=O)OC)[C@H]1C[C@@H](c1ccc([N+](=O)[O-])cc1)[C@H]2C(=O)OC (some centres undefined) | 68.1 µM | 50.9 µM | 30 µM |  | > 100 µM |  | 38.6 µM | > 100 µM | 44.5 µM | > 100 µM |  |  |  |  |  |  |  |  |  | 
Cc1nc(-c2cc3cc(Cl)ccc3oc2=O)cc2c1c(=O)oc1ccc(Cl)cc12 | > 100 µM | > 100 µM | > 100 µM | > 100 µM |  | > 100 µM | > 100 µM |  | > 100 µM | > 100 µM |  |  |  |  |  |  |  |  |  | 
COC(=O)CCCC(=O)NC1=C(NCc2ccccc2)C(=O)c2ccccc2C1=O | > 100 µM | > 100 µM |  |  | > 100 µM | > 100 µM | > 100 µM | > 100 µM | > 100 µM | > 100 µM |  |  |  |  |  |  |  |  |  | 
CCC(CC(C)C)Nc1ccc(NC(CC)CC(C)C)cc1 (centres undefined) | 65.6 µM | 28.1 µM | 28.2 µM | 24.7 µM | 33 µM | 36 µM | 27.9 µM | > 100 µM | 34.7 µM |  | 16.8 µM | 24.8 µM | 13.7 µM | 15 µM | 10.7 µM | 17.1 µM | 19.3 µM | 14.8 µM | 40.2 µM | 
COc1ccccc1CNCCCCCCCCCCCCN1C(=O)c2ccc3c4c(ccc(c24)C1=O)C(=O)N(CCCCCCCCCCCCNCc1ccccc1OC)C3=O | > 5 µM | > 50 µM | > 50 µM |  |  | > 50 µM | > 50 µM | > 50 µM |  | > 50 µM |  | > 5 µM | > 50 µM | 48.9 µM |  |  | > 50 µM | > 50 µM | > 50 µM | > 50 µM
C/C(Nc1ccc(Cl)cc1Cl)=C1/CCOC1=O | > 100 µM | > 100 µM | > 100 µM | 51.8 µM | 89.9 µM | > 100 µM | > 100 µM |  |  |  |  |  |  |  |  |  |  |  |  | 
CC1CC/C(=C\c2ccc(Cl)cc2)c2nc(N)c(C#N)c(-c3ccc(Cl)cc3)c21 (centres undefined) | > 100 µM | > 100 µM | > 100 µM |  | > 100 µM | > 100 µM | > 100 µM | 45.5 µM | > 100 µM | > 100 µM |  |  |  |  |  |  |  |  |  | 
CC(C)(C)C1CC[C@H](O)[C@H]([C@H](O)CC2CC(=O)N(c3ccccc3)C(=O)C2)C1 (some centres undefined) | > 100 µM | > 100 µM | > 100 µM | > 100 µM | > 100 µM | > 100 µM | > 100 µM | > 100 µM | > 100 µM |  |  |  |  |  |  |  |  |  |  | 
CC(=O)Nc1cc(Nc2cc(=O)[nH]c(=O)[nH]2)ccc1C | > 100 µM | > 100 µM | > 100 µM | > 100 µM | > 100 µM | > 100 µM | > 100 µM |  | > 100 µM |  |  |  |  |  |  |  |  |  |  | 
C=CC1CN2CCC1CC2C(O)c1ccnc2ccccc12 (centres undefined) | > 100 µM | > 100 µM | > 100 µM |  | > 100 µM | > 100 µM | > 100 µM | > 100 µM | > 100 µM | > 100 µM | > 100 µM |  |  |  |  |  | > 100 µM |  |  | 
CCOC(=O)c1cn(C)c(=S)n2c1nc1ccccc12 | > 100 µM | > 100 µM | > 100 µM | > 100 µM | > 100 µM | > 100 µM | > 100 µM | > 100 µM | > 100 µM |  |  |  |  |  |  |  |  |  |  | 
Nc1ncnc2c1ncn2Cc1cccc(CCl)c1 | 91.4 µM | 51.1 µM | 30.4 µM | 65.5 µM | 33.4 µM |  | 41.7 µM | 37 µM | 29.7 µM |  |  |  |  |  |  |  |  |  |  | 
CC(C)OC1OC(CO)C(O)CC1n1cc(F)c(=O)[nH]c1=O (centres undefined) | > 100 µM | > 100 µM | > 100 µM | > 100 µM | > 100 µM | > 100 µM | > 100 µM | > 100 µM | > 100 µM |  |  |  |  |  |  |  |  |  |  | 
CC(=O)CC(=O)CCC(=O)O | > 100 µM | > 100 µM |  |  | > 100 µM | > 100 µM | > 100 µM | > 100 µM | > 100 µM | > 100 µM |  |  |  |  |  |  |  |  |  | 
C(/Cc1ccc2c(c1)OCO2)=N\NC1=NCCCN1 | > 100 µM | > 100 µM | 56.4 µM | > 100 µM | > 100 µM | > 100 µM | > 100 µM |  | > 100 µM | > 100 µM |  |  |  |  |  |  |  |  |  | 
